In one assay the target is T1, human TGR5 receptor (Homo sapiens, UniProt Q8TDU6).
T1 construct: host or cells: CHO-K1 (hTGR5-CHO)
T1 sequence (Q8TDU6 1-330): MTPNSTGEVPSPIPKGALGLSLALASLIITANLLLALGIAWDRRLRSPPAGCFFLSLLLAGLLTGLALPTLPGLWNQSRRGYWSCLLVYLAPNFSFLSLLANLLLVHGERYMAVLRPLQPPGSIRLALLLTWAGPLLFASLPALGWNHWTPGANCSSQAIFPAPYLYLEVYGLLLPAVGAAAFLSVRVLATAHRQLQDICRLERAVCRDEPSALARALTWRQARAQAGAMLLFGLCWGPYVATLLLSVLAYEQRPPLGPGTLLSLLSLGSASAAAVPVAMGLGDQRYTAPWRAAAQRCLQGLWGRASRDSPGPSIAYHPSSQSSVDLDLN
Description: Human TGR5 cAMP production assay (hTGR5-CHO cells, DiscoveRx cAMP XS+ kit). It is filed as cell-based. The note with it: luminescent cAMP assay, read-out: Human TGR5 Lum. cAMP Activity (EC50). Here is the method:
Human TGR5 cAMP Production Assay
Compounds of the present invention were evaluated for their ability to induce cAMP production using CHO-K1 cells overexpressing the human TGR5 receptor.
CHO-K1 cells stably expressing human TGR5 receptor (accession number NM_001077194.1) (hTGR5) (i.e., hTGR5-CHO cells) were purchased from DiscoveRx Corporation (Fremont, Calif.). hTGR5-CHO cells were grown in Ham's F-12 media supplemented with 10% Fetal Bovine Serum, 1% Penicillin-Streptomycin, 2 mM L-Alanine L-Glutamine (Glutamax), and 800 μg/mL Geneticin selection. The cAMP production assay was performed using DiscoveRx's cAMP XS+ kit (Catalog No. 90-0075XL) following the manufacturer's recommended protocol. Briefly, hTGR5-CHO cells were harvested using non-enzymatic cell dissociation buffer (Sigma-Aldrich, St. Louis, Mo.) and 1×10^6 cells were combined in Phosphate-Buffered Saline (PBS) to a final volume of 496 μL to which 4 μL of 125 mM IBMX (Sigma-Aldrich, St. Louis, Mo.) was added. 500 μL of cAMP antibody solution was added to the harvested cells and incubated at room temperature for 20 min.
Test compounds were serially diluted (half-log dilutions) in DMSO and then further diluted 1:50 in PBS, 10 mM HEPES buffer. 2 μL of serially diluted compound was added to a 384-well low volume plate (Greiner; cat #784075) and centrifuged briefly. 2 μl of the cell/cAMP antibody mixture was then added to each compound-containing well and allowed to incubate at room temperature for one hour. Following incubation, the XS+ kits' ED/Lysis/CL Substrate Working Solution was prepared following the manufacturer's recommended protocol and 4 μL was added to each well of the plate. The plate was then incubated for one hour at room temperature. Following incubation, 4 μL of Enzyme Acceptor reagent was added to the plate and allowed to incubate overnight at room temperature. Luminescent signal was then detected using the Viewlux instrument (Perkin-Elmer, Waltham, Mass.).
Human and Mouse TGR5 cAMP
(§1) In Table 52, EC50 values for both human and mouse cells were determined according to the TGR5 cAMP assays described above. […]
A general note: Cyclic AMP is a second messenger, typically raised through Gs and lowered through Gi signalling.

For a further assay, the target named is T2, mouse TGR5 receptor (Mus musculus, UniProt Q80SS6).
T2 construct: host or cells: HEK293-EBNA (293 c18, ATCC CRL10852)
T2 sequence (Q80SS6 1-329): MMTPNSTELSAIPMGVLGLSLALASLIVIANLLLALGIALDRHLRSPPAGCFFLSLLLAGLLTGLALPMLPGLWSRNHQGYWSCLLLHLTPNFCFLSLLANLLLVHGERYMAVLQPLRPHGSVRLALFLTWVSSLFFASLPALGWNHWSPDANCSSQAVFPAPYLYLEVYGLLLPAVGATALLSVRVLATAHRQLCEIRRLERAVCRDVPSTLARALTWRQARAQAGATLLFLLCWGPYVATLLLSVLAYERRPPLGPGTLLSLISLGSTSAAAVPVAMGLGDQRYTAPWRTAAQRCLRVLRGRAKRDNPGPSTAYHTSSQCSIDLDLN
In words: Mouse TGR5 HTRF cAMP production assay (HEK293-EBNA cells, Cisbio cAMP HiRange kit). It is filed as cell-based. The following applies: HEK293-EBNA cells overexpressing mouse TGR5, HTRF cAMP assay. As to the method:
Mouse TGR5 cAMP Production Assay
Compounds of the present invention were evaluated for their ability to induce cAMP production in HEK-EBNA cells overexpressing the mouse TGR5 receptor. Human embryonic kidney cells (HEK293-EBNA) stably expressing mouse TGR5 receptor were established using the following procedure. Specifically, a commercially obtained gene encoding mouse TGR5 (accession number BC116914) from Thermo Scientific (Waltham, Mass.) was cloned into an episomal expression vector. The resulting expression plasmid was then transfected into 293 c18 (ATCC® CRL10852™) cells, which express the Epstein-Barr virus nuclear antigen EBNA1 and can support the replication of episomal vectors. Selection for the plasmid was maintained with Hygromycin B. Cells were cultured and maintained in DMEM (Sigma; cat #6429) supplemented with 10% Fetal Bovine Serum, 1% penicillin/streptomycin, 2 mM L-alanine L-glutamine (GlutaMax), and 250 μg/mL Hygromycin.
We developed two cAMP production assays.
(ii) HTRF cAMP Production Assay
In this second cAMP production assay, the cAMP production was measured in 384-well low volume plates (Greiner; cat #784075) using the Cisbio™ cAMP HiRange HTRF Assay Kit (CisBio) according to the manufacturer's protocol.
Briefly, compounds were initially diluted in 100% DMSO (12-point serial dilution by half logs) in a 96-well plate and then were further diluted 1:50 in PBS containing 10 mM HEPES. 5 μL were transferred to the 384-well assay plate in duplicate. HEK293-EBNA cells stably overexpressing mouse TGR5 were harvested using non-enzymatic cell dissociation buffer (Sigma), spun down, then resuspended in serum-free DMEM with 500 μM IBMX at a density of 500,000 cells/mL. 5 μL of cell suspension was transferred to each well of the 384-well assay plate already containing compound. The plate was covered and incubated at room temperature for 1 hour. The d2-cAMP and anti-cAMP Ab-cryptate stock solutions were prepared as per kit instructions. Then 5 μL of each conjugate (d2 and cryptate) were added to each well of the assay plate. The plate was covered and incubated at room temperature for one (1) hour. The plate was read on an Envision™ plate reader (PerkinElmer).
as §1
A general note: In TR-FRET formats the signal depends on donor and acceptor labels being close together.

The structures appear in SMILES notation.

These results are taken from patent US10654834B2 (Venenum Biodesign, LLC, priority 2016, dated 2020).

As for `N#Cc1ccc(CCNC(=O)[C@@H]2CCCN2c2cc(N3CCC(CCCC(=O)NCCNc4ncnc5c4ncn5[C@@H]4O[C@H](CO)C(O)C4O)CC3)nc(C(F)(F)F)n2)cc1` (stereo partly drawn) [Compound 97, (2S)-N-(4-cyanophenethyl)-1-(6-(4-(4-((2-((9-((2R,5R)-3,4-dihydroxy-5-(hydroxymethyl)tetrahydrofuran-2-yl)-9H-purin-6-yl)amino)ethyl)amino)-4-oxobutyl)piperidin-1-yl)-2-(trifluoromethyl)-pyrimidin-4-yl)pyrrolidine-2-carboximide], the EC50 on human TGR5 receptor and on mouse TGR5 receptor was under 100 nM throughout.

In the case of `N#Cc1ccc(CCNC(=O)[C@@H]2CCCN2c2cc(N3CCC(CCCC(=O)NCCNC(=O)c4cc(NC[C@H](O)[C@@H](O)[C@H](O)[C@H](O)CO)ncn4)CC3)nc(C(F)(F)F)n2)cc1` [Compound 100, N-(2-(4-(1-(6-((S)-2-((4-cyanophenethyl)carbamoyl)pyrrolidin-1-yl)-2-(trifluoromethyl)pyrimidin-4-yl)piperidin-4-yl)butanamido)ethyl)-6-(((2S,3R,4R,5R)-2,3,4,5,6-pentahydroxyhexyl)amino)-pyrimidine-4-carboxamide], the concentration giving a half-maximal response (EC50) on human TGR5 receptor was 100 to 999 nM; at mouse TGR5 receptor, under 100 nM.

For `N#Cc1ccc(CCNC(=O)[C@@H]2CCCN2c2cc(N3CCC(CCCC(=O)NCCNc4nccc(C(=O)O)n4)CC3)nc(C(F)(F)F)n2)cc1` [Compound 102, (S)-2-((2-(4-(1-(6-(2-((4-cyanophenethyl)carbamoyl)pyrrolidin-1-yl)-2-(trifluoromethyl)pyrimidin-4-yl)piperidin-4-yl)butanamido)ethyl)amino) pyrimidine-4-carboxylic acid], the concentration giving a half-maximal response (EC50) at human TGR5 receptor and on mouse TGR5 receptor was under 100 nM each time.

On to `N#Cc1ccc(CCNC(=O)[C@@H]2CCCN2c2cc(N3CCC(CCCC(=O)N4CCN(CC(=O)O)CC4)CC3)nc(C(F)(F)F)n2)cc1` [Compound 108, (S)-2-(4-(4-(1-(6-(2-((4-cyanophenethyl)carbamoyl)pyrrolidin-1-yl)-2-(trifluoromethyl)pyrimidin-4-yl)piperidin-4-yl)butanoyl)piperazin-1-yl)acetic acid], for which the EC50 at human TGR5 receptor and at mouse TGR5 receptor was under 100 nM each time.

In the case of `N#Cc1ccc(CCNC(=O)[C@@H]2CCCN2c2cc(N3CCC(CCN4C(=O)N[C@@H](CS(=O)(=O)O)C4=O)CC3)nc(C(F)(F)F)n2)cc1` [Compound 122, ((R)-1-(2-(1-(6-((S)-2-((4-cyanophenethyl)carbamoyl)pyrrolidin-1-yl)-2-(trifluoromethyl)pyrimidin-4-yl)piperidin-4-yl)ethyl)-2,5-dioxoimidazolidin-4-yl)methanesulfonic acid], the 50% effective concentration (EC50) on human TGR5 receptor and on mouse TGR5 receptor was under 100 nM each time.

Consider `N#Cc1ccc(CCNC(=O)[C@@H]2CCCN2c2cc(N3CCC(CCCC(=O)NCCNC(=O)CS(=O)(=O)O)CC3)nc(C(F)(F)F)n2)cc1` [Compound 124, (S)-2-((2-(4-(1-(6-(2-((4-cyanophenethyl)carbamoyl)pyrrolidin-1-yl)-2-(trifluoromethyl)pyrimidin-4-yl)piperidin-4-yl)butanamido)-ethyl)amino)-2-oxoethanesulfonic acid], for which the EC50 on human TGR5 receptor and on mouse TGR5 receptor was under 100 nM in each case.

Regarding `N=C(N)NCCCC1CCN(c2cc(N3CCC[C@H]3C(=O)NCCc3ccc(C(F)(F)F)cc3)nc(C(F)(F)F)n2)CC1` [Compound 132, (S)-1-(6-(4-(3-guanidinopropyl)piperidin-1-yl)-2-(trifluoromethyl)pyrimidin-4-yl)-N-(4-(trifluoromethyl)phenethyl)-pyrrolidine-2-carboxamide], the EC50 on human TGR5 receptor and at mouse TGR5 receptor was under 100 nM throughout.

As for `CN(CC#CCOC1CCN(c2cc(N3CCC[C@H]3C(=O)NCCc3ccc(C#N)cc3)nc(C(F)(F)F)n2)CC1)CCS(=O)(=O)O` [Compound 135, (S)-2-((4-((1-(6-(2-((4-cyanophenethyl)carbamoyl)pyrrolidin-1-yl)-2-(trifluoromethyl)pyrimidin-4-yl)piperidin-4-yl)oxy)but-2-yn-1-yl)(methyl)amino)ethanesulfonic acid], the EC50 on human TGR5 receptor was 100 to 999 nM; on mouse TGR5 receptor, under 100 nM.

Take `Cc1ccsc1-c1cc(N2CCC[C@H]2C(=O)NCCc2ccc(C#N)cc2)nc(C(F)(F)F)n1` [Compound 172, (S)-N-(4-cyanophenethyl)-1-(6-(3-methylthiophen-2-yl)-2-(trifluoromethyl)pyrimidin-4-yl)pyrrolidine-2-carboxamide]: the half-maximal effective concentration (EC50) on human TGR5 receptor and at mouse TGR5 receptor was 100 to 999 nM throughout.

As to `N#Cc1ccc(CCNC(=O)[C@@H]2CCCN2c2cc(-c3ccc(C(=O)O)s3)nc(C(F)(F)F)n2)cc1` [Compound 181, (S)-5-(6-(2-((4-cyanophenethyl)carbamoyl)pyrrolidin-1-yl)-2-(trifluoromethyl)pyrimidin-4-yl)thiophene-2-carboxylic acid], the EC50 is 100 to 999 nM on human TGR5 receptor and under 100 nM on mouse TGR5 receptor.

On to `N#Cc1ccc(CCNC(=O)[C@@H]2CCCN2c2cc(-c3csc(CO)c3)nc(C(F)(F)F)n2)cc1` [Compound 182, (S)—N-(4-cyanophenethyl)-1-(6-(5-(hydroxymethyl)thiophen-3-yl)-2-(trifluoromethyl)pyrimidin-4-yl)pyrrolidine-2-carboxamide], for which the EC50 is 100 to 999 nM on human TGR5 receptor and under 100 nM at mouse TGR5 receptor.

As for `N#Cc1ccc(CCNC(=O)[C@@H]2CCCN2c2cc(-c3ccc(CO)s3)nc(C(F)(F)F)n2)cc1` [Compound 183, (S)-N-(4-cyanophenethyl)-1-(6-(5-(hydroxymethyl)thiophen-2-yl)-2-(trifluoromethyl)pyrimidin-4-yl)pyrrolidine-2-carboxamide], the 50% effective concentration (EC50) at human TGR5 receptor was 100 to 999 nM; on mouse TGR5 receptor it was under 100 nM.

As to `N#Cc1ccc(CCNC(=O)[C@@H]2CCCN2c2cc(-c3ccc(CCN)cc3)nc(C(F)(F)F)n2)cc1` [Compound 184, (S)-1-(6-(4-(2-aminoethyl)phenyl)-2-(trifluoromethyl)pyrimidin-4-yl)-N-(4-cyanophenethyl)pyrrolidine-2-carboxamide], the EC50 at human TGR5 receptor and at mouse TGR5 receptor was 100 to 999 nM each time.

By EC50 is commonly meant the concentration that produces a half-maximal response.
